Test results reported in patent publication US20250381245A1, “METHODS AND COMPOSITIONS OF TREATING CANCER BY MODULATING PALMITOYLATION OF FLOTILLIN-1” (BOARD OF REGENTS, THE UNIVERSITY OF TEXAS SYSTEM, priority 2022, published 2025).
Residues, ends and D or L forms follow the SMILES beside them. *: point of attachment. Cbz = O=C(OCc1ccccc1)*

Test system: flotillin-1
Assay: Flotillin-1 protein level by western blot after chemical inhibition of palmitoylation in triple-negative breast cancer cell lines
Format: cell-based
Conditions: MDA-MB-231 and SUM 159 triple-negative breast cancer cell lines
Experimental: MDA-MB-231 and SUM 159 triple-negative breast cancer cell lines were treated with drug vehicle (DMSO), (B, C) global palmitoylation inhibitor (2-BP), or 2-BP+a proteasomal inhibitor (MG-132).
Protein lysates were lysed in a 1% SDS lysis buffer containing 2 mM EDTA and 20 mM Tris-HCl (PH 6.8) for 5 minutes and scraped into 1.5 mL collection tubes. Lysates were sonicated using horn sonification for 3×20 seconds each and allowed to recover on ice in between each sonification. Lysates were centrifuged for 5 minutes at 10,000 rpm at 4° C. and supernatants subjected to protein quantification by BCA assay. Lysates were then diluted to 50 ug, resolubilized in 4×SDS loading buffer (200 mM Tris-HCL, 6.8 PH, 8% SDS, 40% glycerol, 0.4% bromophenol blue) and boiled at 95° C. for 7 minutes. Boiled samples were resolved on a 10% SDS-PAGE gel and transferred to a nitrocellulose membrane. Transferred membranes were blocked for 1 hour in 5% non-fat dairy milk (NFDM). Blocked membranes were washed with 1× tris buffer saline+0.1% tween-20 (TBST) prior to the addition of the diluted primary antibody overnight at 4° C. The following day, membranes were washed thrice with TBST for 5 minutes each prior to the addition of rabbit (1:3000) (Cell Signaling Technologies, #7074) or mouse IgG (1:5000) secondary horse radish peroxidase (HRP) conjugated antibody diluted in 5% NFDM for 1 hour. […]

SMILES | flotillin-1 protein levels (global palmitoylation inhibitor vs drug vehicle (DMSO)) | flotillin-1 protein levels upon proteasomal inhibition (2-BP + proteasomal inhibitor (MG-132) vs 2-BP alone)
CCCCCCCCCCCCCCC(Br)C(=O)O (centres unmarked) [2-BP, 2-bromopalmitate] | significantly reduces flotillin-1 protein levels | –
CC(C)C[C@@H](C=O)NC(=O)[C@H](CC(C)C)NC(=O)[C@H](CC(C)C)NC(=O)OCc1ccccc1 [MG-132] (Cbz-Leu-Leu-Leu-aldehyde) | – | restored
